pKd: −log10 of the molar value.
Biological target: MlaC (Smlt4673) (Stenotrophomonas maltophilia, UniProt B2FP85)
Assay: MicroScale Thermophoresis (MST), supported by nanoDSF Tm shift
Format: binding

Sequence of MlaC (Smlt4673) (B2FP85 entry or part of it): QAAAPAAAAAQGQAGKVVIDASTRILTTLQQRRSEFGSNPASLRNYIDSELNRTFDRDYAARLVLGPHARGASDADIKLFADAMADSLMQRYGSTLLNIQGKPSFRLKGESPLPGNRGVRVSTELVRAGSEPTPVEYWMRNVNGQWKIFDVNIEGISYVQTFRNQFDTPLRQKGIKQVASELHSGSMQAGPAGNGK

CCCCCCCCCCCCCC(=O)OC[C@H](COP(=O)(O)OCCN)OC(=O)CCCCCCCCCCCCC [PE14/14, PE C14:0/C14:0]
pKd: 3.10
